Results from patent EP0006352A1, “Hydantoins and thiohydantoins, process for their preparation and pharmaceutical compositions containing them” (BEECHAM GROUP PLC, priority 1978, dated 1980).

Columns and labels:
[1] = system: bronchoconstriction induced by an histamine aerosol; assay: Protection of conscious guinea-pigs against histamine aerosol induced bronchoconstriction (Herxheimer test); type: in vivo; details: 10 gg/ml by aerosol
Method: (b) The Compounds were also examined for their ability to protect conscious guinea-pigs against bronchoconstriction induced by an histamine aerosol (Herxheimer test). The Compounds were administered by aerosol.
The aerosol was produced in the following manner.
Water soluble compounds were dissolved in normal saline at a concentration of 1 mg/ml. Water insoluble compounds were dissolved in ethanol at a concentration of 10 mg/ml. These solutions were then diluted to the test concentrations with normal saline.

[2] = system: 5-hydroxytryptamine induce bronchoconstriction; assay: Inhibition of 5-hydroxytryptamine induced bronchoconstriction in the anaesthetised, artificially respired guinea-pig (Konzett-Rossler preparation); type: in vivo; details: Cavia porcellus, iv
Source text: (a) The Compounds were examined for their ability to inhibit 5-hydroxytryptamine induce bronchoconstriction in the anaesthetised, artificially respired guinea-pig (Konzett-Rossler preparation).

Compound: CCCCCCC(C)(O)CCN1C(=O)N(CC#N)C(=O)C1CC=CCCCC(=O)OCC (stereo not drawn) [Compound 2, 1-(3'-hydroxy-3'-methyl-n-nonyl)-3-cyanomethyl-5-(6"-ethoxycarbonyl-n-hex-2"-enyl) hydantoin]
- increase in pre-convulsive coughing time ([1]; 2 minutes after dosing): 178%
- increase in pre-convulsive coughing time ([1]; after 10 minutes): 39%
- ED50 [2]: 1.1 µg/kg
